pIC50: −log10 of the molar value. Active and inactive are the calls of the source. The calls are words filed in the database; no cut-off is given here.
Tests used:
LoVo [1] = experiment: Antiproliferative activity against human LoVo cells assessed as reduction in cell viability incubated for 120 hrs by Cell-titer Glo luminescent assay
CWR22R [2] = experiment: Antiproliferative activity against human 22Rv1 cells incubated for 120 hrs by Cell-titer Glo luminescent assay; details: 22Rv1, 120 h
LoVo [3] = experiment: Induction of apoptosis in human LoVo cells assessed as viable cells at 3 uM incubated for 24 hrs by Annexin-V-FITC-PI staining based flow cytometric analysis (reference value: 72.1 %); type: functional; details: read-out: Activity
LoVo [4] = experiment: Induction of apoptosis in human LoVo cells assessed as early apoptotic cells at 3 uM incubated for 24 hrs by Annexin-V-FITC-PI staining based flow cytometric analysis (reference value: 13.7 %); type: functional
LoVo [5] = experiment: Induction of apoptosis in human LoVo cells assessed as late apoptotic cells at 3 uM incubated for 24 hrs by Annexin-V-FITC-PI staining based flow cytometric analysis (reference value: 13.2 %); type: functional
LoVo [6] = experiment: Induction of apoptosis in human LoVo cells assessed as necrotic cells at 3 uM incubated for 24 hrs by Annexin-V-FITC-PI staining based flow cytometric analysis (reference value: 0.97 %); type: functional
JeKo-1 [7] = experiment: Antitumor activity against human JeKo-1 cells xenografted in female CB17 SCID mouse assessed as tumor growth inhibition at 50 mg/kg BID, po measured every 2 days for 24 days relative to control; type: functional; details: JeKo-1, 576 h, time 24 day, read-out: TGI
LoVo [8] = experiment: Antitumor activity against human LoVo cells xenografted in female Balb/c nude mouse assessed as tumor growth inhibition at 50 mg/kg QD, po measured every 3 days for 25 days relative to control; type: functional; details: 600 h, time 25 day, read-out: TGI
NCI-H1703 [9] = experiment: Antitumor activity against human NCI-H1703 cells xenografted in female Balb/c nude mouse assessed as tumor growth inhibition at 50 mg/kg QD, po measured every 3 days for 28 days by vernier caliper based analysis relative to control; type: functional; details: NCI-H1703, 672 h, time 28 day, read-out: TGI
LNCaP = experiment: Antiproliferative activity against human LNCaP cells assessed as reduction in cell viability incubated for 120 hrs by Cell-titer Glo luminescent assay; type: functional, cell-based
MCF7 = experiment: Antiproliferative activity against human MCF7 cells assessed as reduction in cell viability incubated for 120 hrs by Cell-titer Glo luminescent assay; type: functional, cell-based
MDA-MB-231 = experiment: Antiproliferative activity against human MDA-MB-231 cells assessed as reduction in cell viability incubated for 120 hrs by Cell-titer Glo luminescent assay; type: functional, cell-based
MDA-MB-436 = experiment: Antiproliferative activity against human MDA-MB-436 cells assessed as reduction in cell viability incubated for 120 hrs by Cell-titer Glo luminescent assay; type: functional, cell-based
MDA-MB-453 = experiment: Antiproliferative activity against human MDA-MB-453 cells assessed as reduction in cell viability incubated for 120 hrs by Cell-titer Glo luminescent assay; type: functional, cell-based
A2780 = experiment: Antiproliferative activity against human A2780 cells assessed as reduction in cell viability incubated for 120 hrs by Cell-titer Glo luminescent assay; type: functional, cell-based
OVCAR-8 = experiment: Antiproliferative activity against human OVCAR-8 cells assessed as reduction in cell viability incubated for 120 hrs by Cell-titer Glo luminescent assay; type: functional, cell-based
SK-OV-3 = experiment: Antiproliferative activity against human SK-OV-3 cells assessed as reduction in cell viability incubated for 120 hrs by Cell-titer Glo luminescent assay; type: functional, cell-based
HCT-116 = experiment: Antiproliferative activity against human HCT-116 cells assessed as reduction in cell viability incubated for 120 hrs by Cell-titer Glo luminescent assay; type: functional, cell-based
HepG2 = experiment: Antiproliferative activity against human HepG2 cells assessed as reduction in cell viability incubated for 120 hrs by Cell-titer Glo luminescent assay; type: functional, cell-based
Huh-7 = experiment: Antiproliferative activity against human Huh-7 cells assessed as reduction in cell viability incubated for 120 hrs by Cell-titer Glo luminescent assay; type: functional, cell-based
A549 = experiment: Antiproliferative activity against human A549 cells assessed as reduction in cell viability incubated for 120 hrs by Cell-titer Glo luminescent assay; type: functional, cell-based
NCI-H1703 [10] = experiment: Antiproliferative activity against human NCI-H1703 cells assessed as reduction in cell viability incubated for 120 hrs by Cell-titer Glo luminescent assay; type: functional, cell-based
NCI-H69 = experiment: Antiproliferative activity against human NCI-H69 cells assessed as reduction in cell viability incubated for 120 hrs by Cell-titer Glo luminescent assay; type: functional, cell-based
JeKo-1 [11] = experiment: Antiproliferative activity against human JeKo-1 cells assessed as reduction in cell viability incubated for 120 hrs by Cell-titer Glo luminescent assay; type: functional, cell-based
KATO III = experiment: Antiproliferative activity against human KATO III stomach cancer cell line assessed as reduction in cell viability incubated for 120 hrs by Cell-titer Glo luminescent assay; type: functional, cell-based
T-24 = experiment: Antiproliferative activity against human T24 cells assessed as reduction in cell viability incubated for 120 hrs by Cell-titer Glo luminescent assay; type: functional, cell-based
U2OS = experiment: Antiproliferative activity against human U2OS cells assessed as reduction in cell viability incubated for 120 hrs by Cell-titer Glo luminescent assay; type: functional, cell-based
LoVo [12] = experiment: Inhibition of DNA damage repair in human LoVo cells assessed as decrease in Chk1 expression level incubated for 24 hrs by Western blot analysis; type: functional, cell-based; details: dose 0.3-1 µM
LoVo [13] = experiment: Inhibition of DNA damage repair in human LoVo cells assessed as decrease in RAD51 expression level incubated for 24 hrs by Western blot analysis; type: functional, cell-based; details: dose 0.3-1 µM
LoVo [14] = experiment: Inhibition of DNA damage repair in human LoVo cells assessed as decrease in MRE11 expression level incubated for 24 hrs by Western blot analysis; type: functional, cell-based; details: dose 0.3-1 µM
LoVo [15] = experiment: Inhibition of DNA damage repair in human LoVo cells assessed as upregulation of p-Histone H2A.X protein level at 0.3 to 1 uM incubated for 24 hrs by Western blot analysis; type: functional, cell-based; details: dose 0.3-1 µM
LoVo [16] = experiment: Induction of cell cycle arrest in human LoVo cells assessed as accumulation of cells at G2 phase incubated for 24 hrs by PI staining based flow cytometric analysis; type: functional; details: dose 1-3 µM
[17] = molecular target: Phosphatidylinositol 4-phosphate 3-kinase C2 domain-containing subunit beta (Homo sapiens) (UniProt O00750); experiment: Inhibition of PIK3C2B (unknown origin) at 10 uM preincubated for 15 mins and measured after 60 mins by Z-LYTE screening relative to control; details: time 75.0 min
Sequence of Phosphatidylinositol 4-phosphate 3-kinase C2 domain-containing subunit beta (Homo sapiens) (O00750 whole entry, the tested form may be a part): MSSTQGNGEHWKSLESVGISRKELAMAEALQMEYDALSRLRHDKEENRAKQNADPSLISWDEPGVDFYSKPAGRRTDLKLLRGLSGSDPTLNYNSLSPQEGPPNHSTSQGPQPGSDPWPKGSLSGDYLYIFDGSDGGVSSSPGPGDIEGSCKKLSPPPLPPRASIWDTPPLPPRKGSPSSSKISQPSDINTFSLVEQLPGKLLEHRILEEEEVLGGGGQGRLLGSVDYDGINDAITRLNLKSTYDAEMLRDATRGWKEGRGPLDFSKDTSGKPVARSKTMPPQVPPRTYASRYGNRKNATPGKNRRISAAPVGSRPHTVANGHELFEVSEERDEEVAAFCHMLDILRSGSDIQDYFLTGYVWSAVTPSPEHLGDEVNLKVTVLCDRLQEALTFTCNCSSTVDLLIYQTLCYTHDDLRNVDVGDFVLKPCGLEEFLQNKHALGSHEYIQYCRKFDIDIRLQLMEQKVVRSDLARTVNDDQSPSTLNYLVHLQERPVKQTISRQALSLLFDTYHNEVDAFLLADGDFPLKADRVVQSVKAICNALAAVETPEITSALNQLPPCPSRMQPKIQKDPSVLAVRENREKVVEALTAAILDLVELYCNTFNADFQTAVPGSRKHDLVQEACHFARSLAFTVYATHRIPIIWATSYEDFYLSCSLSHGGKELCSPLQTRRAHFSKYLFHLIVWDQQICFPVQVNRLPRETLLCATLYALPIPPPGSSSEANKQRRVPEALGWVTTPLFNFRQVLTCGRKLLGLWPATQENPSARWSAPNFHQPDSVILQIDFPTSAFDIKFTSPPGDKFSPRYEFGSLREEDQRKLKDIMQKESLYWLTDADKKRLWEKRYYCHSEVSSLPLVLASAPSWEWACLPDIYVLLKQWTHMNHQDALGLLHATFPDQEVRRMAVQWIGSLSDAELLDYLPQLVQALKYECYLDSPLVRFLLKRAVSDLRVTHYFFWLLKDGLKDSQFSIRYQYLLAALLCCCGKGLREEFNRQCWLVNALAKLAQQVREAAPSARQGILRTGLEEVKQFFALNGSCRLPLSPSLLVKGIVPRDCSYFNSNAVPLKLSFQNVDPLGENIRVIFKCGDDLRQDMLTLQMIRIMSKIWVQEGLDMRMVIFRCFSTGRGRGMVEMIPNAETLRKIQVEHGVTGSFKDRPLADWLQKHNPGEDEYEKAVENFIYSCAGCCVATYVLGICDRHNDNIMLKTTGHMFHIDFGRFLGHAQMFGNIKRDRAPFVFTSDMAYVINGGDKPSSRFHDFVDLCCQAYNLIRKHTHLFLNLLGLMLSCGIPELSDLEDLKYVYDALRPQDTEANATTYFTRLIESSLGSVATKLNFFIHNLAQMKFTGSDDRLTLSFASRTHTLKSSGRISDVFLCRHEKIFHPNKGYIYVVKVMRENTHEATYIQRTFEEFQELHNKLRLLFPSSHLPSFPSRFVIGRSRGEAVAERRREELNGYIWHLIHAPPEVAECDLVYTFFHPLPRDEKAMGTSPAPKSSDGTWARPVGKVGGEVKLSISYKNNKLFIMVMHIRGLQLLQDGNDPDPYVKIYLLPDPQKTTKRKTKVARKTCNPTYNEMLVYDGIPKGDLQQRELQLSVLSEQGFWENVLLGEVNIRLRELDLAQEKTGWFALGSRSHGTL

Homo sapiens = species on record: Homo sapiens; experiment: Inhibition of DNA-PK (unknown origin) at 10 uM preincubated for 15 mins and measured after 60 mins by Z-LYTE screening relative to control; details: time 75.0 min
[18] = molecular target: Serine/threonine-protein kinase mTOR (Homo sapiens, UniProt P42345); experiment: Inhibition of mTOR (unknown origin) at 10 uM preincubated for 15 mins and measured after 60 mins by Z-LYTE screening relative to control; details: time 75.0 min
[19] = molecular target: Proto-oncogene tyrosine-protein kinase ROS (Homo sapiens) (UniProt P08922); experiment: Inhibition of ROS1 (unknown origin) at 10 uM preincubated for 15 mins and measured after 60 mins by Z-LYTE screening relative to control; details: time 75.0 min
[20] = molecular target: Kappa-type opioid receptor (Homo sapiens) (UniProt P41145); experiment: Inhibition of human kappa opioid at 10 uM; details: time 75.0 min
Sequence of Kappa-type opioid receptor (Homo sapiens) (P41145 whole entry): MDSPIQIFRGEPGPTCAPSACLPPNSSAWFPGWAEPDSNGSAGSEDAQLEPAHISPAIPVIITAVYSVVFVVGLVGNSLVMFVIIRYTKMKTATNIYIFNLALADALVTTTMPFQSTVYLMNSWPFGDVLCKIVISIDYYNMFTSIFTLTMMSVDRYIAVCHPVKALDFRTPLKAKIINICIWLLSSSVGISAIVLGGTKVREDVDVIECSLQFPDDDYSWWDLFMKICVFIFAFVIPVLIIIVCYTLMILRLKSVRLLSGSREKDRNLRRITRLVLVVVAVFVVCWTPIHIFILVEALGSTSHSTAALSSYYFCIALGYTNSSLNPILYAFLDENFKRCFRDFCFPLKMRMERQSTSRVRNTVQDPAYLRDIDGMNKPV

JeKo-1 [21] = experiment: Antitumor activity against human JeKo-1 cells xenografted in female CB17 SCID mouse at 40 mg/kg BID, po administered as 3 days on and 4 days off schedule for 24 days; type: functional, organism-based; details: time 24.0 day
CWR22R [22] = experiment: Antitumor activity against human 22Rv1 cells xenografted in male Balb/c nude mouse assessed as tumor growth inhibition at 10 to 60 mg/kg QD, po measured every 3 days for 18 days; type: functional, organism-based; details: dose 10-60 mg/kg, time 18.0 day
CWR22R [23] = experiment: Antiproliferative activity against human 22Rv1 cells incubated for 120 hrs by Cell-titer Glo luminescent assay
[24] = molecular target: Serine/threonine-protein kinase ATR (Homo sapiens, UniProt Q13535); experiment: Inhibition of ATR (unknown origin) assessed as reduction in p53 phosphorylation level incubated for 30 mins by TR-FRET assay
Sequence of Serine/threonine-protein kinase ATR (Q13535 whole entry): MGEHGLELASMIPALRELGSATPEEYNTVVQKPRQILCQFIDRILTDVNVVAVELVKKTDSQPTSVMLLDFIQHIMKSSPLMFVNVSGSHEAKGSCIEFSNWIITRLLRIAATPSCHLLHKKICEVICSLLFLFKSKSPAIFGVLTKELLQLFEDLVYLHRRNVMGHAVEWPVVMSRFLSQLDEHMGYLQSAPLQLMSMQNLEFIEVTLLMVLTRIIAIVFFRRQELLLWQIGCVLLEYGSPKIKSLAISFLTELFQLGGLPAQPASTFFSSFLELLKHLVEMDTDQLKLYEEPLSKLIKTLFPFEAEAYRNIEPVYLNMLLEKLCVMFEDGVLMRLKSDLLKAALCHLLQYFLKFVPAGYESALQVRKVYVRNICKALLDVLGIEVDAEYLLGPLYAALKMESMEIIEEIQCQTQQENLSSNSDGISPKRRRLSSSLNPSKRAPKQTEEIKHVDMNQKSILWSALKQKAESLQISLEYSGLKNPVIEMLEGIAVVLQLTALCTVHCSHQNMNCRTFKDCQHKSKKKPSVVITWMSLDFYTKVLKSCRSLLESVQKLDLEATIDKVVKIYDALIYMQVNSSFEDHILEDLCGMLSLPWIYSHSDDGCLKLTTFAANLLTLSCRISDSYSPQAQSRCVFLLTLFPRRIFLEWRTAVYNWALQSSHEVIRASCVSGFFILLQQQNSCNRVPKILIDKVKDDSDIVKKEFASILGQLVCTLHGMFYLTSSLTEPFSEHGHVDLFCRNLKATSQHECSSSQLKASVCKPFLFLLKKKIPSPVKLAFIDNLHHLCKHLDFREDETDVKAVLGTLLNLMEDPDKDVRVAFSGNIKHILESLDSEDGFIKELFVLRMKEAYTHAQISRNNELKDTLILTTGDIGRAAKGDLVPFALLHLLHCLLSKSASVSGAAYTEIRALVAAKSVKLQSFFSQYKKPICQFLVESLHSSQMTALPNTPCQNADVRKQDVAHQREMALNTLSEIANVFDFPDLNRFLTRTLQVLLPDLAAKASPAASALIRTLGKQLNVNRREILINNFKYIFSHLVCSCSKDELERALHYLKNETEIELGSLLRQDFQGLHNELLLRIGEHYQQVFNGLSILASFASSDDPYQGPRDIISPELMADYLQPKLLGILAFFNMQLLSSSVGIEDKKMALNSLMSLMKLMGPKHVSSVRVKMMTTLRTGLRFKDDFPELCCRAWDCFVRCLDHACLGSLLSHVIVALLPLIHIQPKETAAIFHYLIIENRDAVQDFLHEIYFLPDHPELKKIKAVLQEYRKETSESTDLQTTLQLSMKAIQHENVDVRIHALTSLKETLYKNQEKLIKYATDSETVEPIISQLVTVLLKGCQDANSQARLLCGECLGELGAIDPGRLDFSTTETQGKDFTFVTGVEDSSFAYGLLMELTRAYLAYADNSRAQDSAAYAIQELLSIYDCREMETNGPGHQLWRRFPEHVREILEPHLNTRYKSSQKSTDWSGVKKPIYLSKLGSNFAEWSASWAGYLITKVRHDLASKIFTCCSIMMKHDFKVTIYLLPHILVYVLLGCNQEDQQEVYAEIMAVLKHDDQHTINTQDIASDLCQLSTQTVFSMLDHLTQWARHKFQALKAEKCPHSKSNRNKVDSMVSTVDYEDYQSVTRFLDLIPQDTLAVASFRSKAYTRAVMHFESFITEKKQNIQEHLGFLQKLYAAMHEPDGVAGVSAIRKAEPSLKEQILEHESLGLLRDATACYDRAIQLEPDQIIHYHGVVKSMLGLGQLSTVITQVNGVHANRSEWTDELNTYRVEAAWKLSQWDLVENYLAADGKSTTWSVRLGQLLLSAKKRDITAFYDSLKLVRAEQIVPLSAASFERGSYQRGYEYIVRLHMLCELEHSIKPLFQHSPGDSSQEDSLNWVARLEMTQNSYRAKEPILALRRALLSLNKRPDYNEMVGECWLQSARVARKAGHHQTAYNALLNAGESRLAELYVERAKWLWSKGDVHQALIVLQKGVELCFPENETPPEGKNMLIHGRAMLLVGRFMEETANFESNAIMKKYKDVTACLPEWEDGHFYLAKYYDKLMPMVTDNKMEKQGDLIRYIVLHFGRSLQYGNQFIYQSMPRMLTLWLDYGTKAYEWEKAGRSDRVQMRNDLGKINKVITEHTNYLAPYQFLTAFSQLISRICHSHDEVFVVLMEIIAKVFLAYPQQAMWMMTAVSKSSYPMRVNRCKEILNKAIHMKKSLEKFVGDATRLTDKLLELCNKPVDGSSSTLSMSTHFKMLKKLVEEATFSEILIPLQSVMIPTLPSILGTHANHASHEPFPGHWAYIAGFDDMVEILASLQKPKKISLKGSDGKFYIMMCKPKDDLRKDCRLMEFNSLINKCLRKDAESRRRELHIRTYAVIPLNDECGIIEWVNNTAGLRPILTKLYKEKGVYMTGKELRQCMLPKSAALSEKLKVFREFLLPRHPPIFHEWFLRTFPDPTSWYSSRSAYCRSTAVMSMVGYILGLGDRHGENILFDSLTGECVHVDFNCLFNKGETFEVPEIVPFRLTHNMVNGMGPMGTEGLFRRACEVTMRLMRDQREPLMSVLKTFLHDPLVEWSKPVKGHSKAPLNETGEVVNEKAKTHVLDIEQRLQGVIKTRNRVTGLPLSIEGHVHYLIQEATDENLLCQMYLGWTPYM

Structure (SMILES): Cc1n[nH]c(C)c1-c1nc(N2CCOC[C@H]2C)c2nc(-c3cccc4[nH]ccc34)ccc2n1
- pIC50 (LoVo [1]): 6.61

Structure (SMILES): Cc1nn(-c2cccnc2)c(C)c1-c1cc(N2CC3CCC(C2)O3)nc2c(-c3ccn[nH]3)cnn12 [listing 1 of 2 here]
- pIC50 (CWR22R [2]): 6.67

Structure (SMILES): C[C@@H]1COCCN1c1cc(C2([S@](C)(=N)=O)CC2)nc(-c2cc[nH]c3nccc2-3)n1 [CERALASERTIB]
- pIC50 (CWR22R [2]): 6.04
- viability at 3 µM (LoVo [3]): 54.7%
- Activity (LoVo [4]): 19.3%
- Activity (LoVo [5]): 24%
- Activity (LoVo [6]): 1.93%
- inhibition in vivo at 50 mg/kg (JeKo-1 [7]): 90.6%
- inhibition in vivo at 50 mg/kg (LoVo [8]): 57%
- inhibition in vivo at 50 mg/kg (NCI-H1703 [9]): 34%

Structure (SMILES): Cc1n[nH]c(C)c1-c1cc(N2CC3CCC(C2)O3)n2ncc(-c3cnn(C)c3)c2n1
- pIC50 (CWR22R [2]): 6.03

Structure (SMILES): Cc1nn(-c2cncc(F)c2)c(C)c1-c1cc(N2CC3CCC(C2)O3)nc2c(-c3ccn[nH]3)cnn12
- pIC50 (CWR22R [2]): 5.88

Structure (SMILES): Cc1n[nH]c(C)c1-c1cc(N2CC3CCC(C2)O3)nc2c(-c3ccn[nH]3)cnn12
- pIC50 (CWR22R [2]): 6.21

Structure (SMILES): Cc1n[nH]c(C)c1-c1cc(N2CC3CCC(C2)O3)nc2c(-c3ccccc3)cnn12
- pIC50 (CWR22R [2]): 6.06

Structure (SMILES): CCOc1cncc(-n2nc(C)c(-c3cc(N4CC5CCC(C4)O5)nc4c(-c5ccn[nH]5)cnn34)c2C)c1
- pIC50 (CWR22R [2]): 6.29

Structure (SMILES): Cc1n[nH]c(C)c1-c1cc(C23CCC(CNC2)O3)nc2c(-c3cccs3)cnn12 (centres undefined)
- pIC50 (CWR22R [2]): 6.01

Structure (SMILES): Cc1nn(-c2cncc(Br)c2)c(C)c1-c1cc(N2CC3CCC(C2)O3)nc2c(-c3ccn[nH]3)cnn12
- pIC50 (CWR22R [2]): 6.36

Structure (SMILES): Cc1nn(-c2cccnc2)c(C)c1-c1cc(N2C[C@H]3C[C@@H]2CO3)nc2c(-c3ccn[nH]3)cnn12
- pIC50 (CWR22R [2]): < 5.00

Structure (SMILES): Cc1nn(-c2cncc(C(F)F)c2)c(C)c1-c1cc(N2CC3CCC(C2)O3)nc2c(-c3ccn[nH]3)cnn12
- pIC50 (CWR22R [2]): 6.01

Structure (SMILES): Cc1nn(-c2ccc(N)nc2)c(C)c1-c1cc(N2CC3CCC(C2)O3)nc2c(-c3ccn[nH]3)cnn12
- pIC50 (CWR22R [2]): 6.70

Structure (SMILES): Cc1nn(-c2cccnc2)c(C)c1-c1cc(N2CC3CCC(C2)O3)nc2c(-c3ccn[nH]3)cnn12 [listing 2 of 2 here]
- Activity (LNCaP): Active
- Activity (MCF7): Active
- Activity (MDA-MB-231): Active
- Activity (MDA-MB-436): Active
- Activity (MDA-MB-453): Active
- Activity (A2780): Active
- Activity (OVCAR-8): Active
- Activity (SK-OV-3): Active
- Activity (HCT-116): Active
- Activity (HepG2): Active
- Activity (Huh-7): Active
- Activity (A549): Active
- Activity (NCI-H1703 [10]): Active
- Activity (NCI-H69): Active
- Activity (JeKo-1 [11]): Active
- Activity (KATO III): Active
- Activity (T-24): Active
- Activity (U2OS): Active
- inhibition (LoVo [12]): Dose-dependent-effect
- inhibition (LoVo [13]): Dose-dependent-effect
- inhibition (LoVo [14]): Dose-dependent-effect
- inhibition (LoVo [15]): Active
- Activity (LoVo [16]): Dose-dependent-effect
- inhibition [17]: > 80%
- inhibition (Homo sapiens): > 80%
- inhibition [18]: > 80%
- inhibition [19]: > 80%
- inhibition [20]: Active
- Activity (JeKo-1 [21]): Active
- TGI (CWR22R [22]): Active
- Activity (CWR22R [23]): Active

Structure (SMILES): Cc1n[nH]c(C)c1-c1cc(N2CC3CCC(C2)O3)nc2c(-c3ccnn3C)cnn12
- pIC50 [24]: < 6.30
- pIC50 (CWR22R [2]): 5.19

Structure (SMILES): Cc1nn(-c2cncnc2)c(C)c1-c1cc(N2CC3CCC(C2)O3)nc2c(-c3ccn[nH]3)cnn12
- pIC50 (CWR22R [2]): 5.85

Source: ChEMBL document CHEMBL6103629 (J Med Chem, 2025)
